Results taken from patent US9101577B2, “Analgesic pharmaceutical composition for oral administration” (Warszawski Uniwersytet Medyczny, priority 2011, dated 2015).

Assays:
[1] = tested on: Male Wistar rats; test: Acute activity after single p.o. administration, paw withdrawal test (Randall and Selitto), % of analgesia; type: in vivo, rat; details: single separate administration p.o., magnesium salts 15 mg magnesium ions/kg
[2] = tested on: Male Wistar rats; test: Prolonged activity on repeated daily p.o. administration (7 or 10 days), paw withdrawal test (Randall and Selitto); type: in vivo, rat; details: separate administration p.o., magnesium lactate micronized 15 or normal 30 mg magnesium ions/kg

Compound	analgesic activity on separate administration (oxycodone study) ([1]; oxycodone 5 mg/kg)	analgesic activity on separate administration, 7 days (oxycodone study) ([2]; oxycodone 5 mg/kg)	analgesic activity on separate administration (tramadol study) ([1]; tramadol 125 mg/kg)	pain threshold on separate administration, 10 days (tramadol study) ([2]; tramadol 125 mg/kg)
COc1ccc2c3c1O[C@H]1C(=O)CC[C@@]4(O)[C@@H](C2)N(C)CC[C@]314 [oxycodone, reference compound]	showed no analgesic activity	did not exhibit analgesic activity	–	–
COc1cccc(C2(O)CCCCC2CN(C)C)c1 (stereo not shown) [tramadol, reference compound]	–	–	did not exhibit analgesic activity	insignificantly intensified the threshold for mechanical nociceptive stimuli from days 6 to 10
